Measurements published in ChEMBL document CHEMBL5465560, “Selectivity Literature for EUbOPEN Chemogenomic Library” (2024).

Key:
[1] = target: Tyrosine-protein kinase JAK1 (Homo sapiens, UniProt P23458); experiment: Selectivity interaction (KinomeScan (DiscoverX)) EUB0000229b JAK1; details: at 10 µM
[2] = target: T1, Serine/threonine-protein kinase BRSK1 (Homo sapiens) (UniProt Q8TDC3); experiment: Selectivity interaction (KinomeScan (DiscoverX)) EUB0000229b BRSK1; details: at 10 µM
T1 sequence (whole entry): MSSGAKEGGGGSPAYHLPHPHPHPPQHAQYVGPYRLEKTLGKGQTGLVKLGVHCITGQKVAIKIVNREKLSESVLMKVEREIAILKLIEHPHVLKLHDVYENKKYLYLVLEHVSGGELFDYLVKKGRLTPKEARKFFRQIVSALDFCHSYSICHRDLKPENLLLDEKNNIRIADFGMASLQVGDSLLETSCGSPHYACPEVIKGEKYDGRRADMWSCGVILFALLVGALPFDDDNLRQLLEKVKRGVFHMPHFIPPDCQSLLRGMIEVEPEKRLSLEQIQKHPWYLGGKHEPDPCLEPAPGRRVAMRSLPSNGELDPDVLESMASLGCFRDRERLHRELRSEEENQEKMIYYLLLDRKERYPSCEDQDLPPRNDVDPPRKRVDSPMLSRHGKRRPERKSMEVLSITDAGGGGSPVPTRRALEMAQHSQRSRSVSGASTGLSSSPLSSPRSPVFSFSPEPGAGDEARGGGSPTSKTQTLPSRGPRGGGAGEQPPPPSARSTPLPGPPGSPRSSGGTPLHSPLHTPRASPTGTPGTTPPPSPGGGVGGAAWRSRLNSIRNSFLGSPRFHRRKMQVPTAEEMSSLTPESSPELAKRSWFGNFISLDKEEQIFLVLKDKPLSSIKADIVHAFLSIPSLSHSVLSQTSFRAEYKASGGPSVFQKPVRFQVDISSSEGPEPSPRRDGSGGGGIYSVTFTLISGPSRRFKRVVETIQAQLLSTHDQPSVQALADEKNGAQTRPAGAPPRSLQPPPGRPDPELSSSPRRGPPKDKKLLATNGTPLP

[3] = target: T2, Dual specificity mitogen-activated protein kinase kinase 6 (Homo sapiens) (UniProt P52564); experiment: Selectivity interaction (KinomeScan (DiscoverX)) EUB0001079a MAP2K6; details: at 1 µM
T2 sequence (whole entry): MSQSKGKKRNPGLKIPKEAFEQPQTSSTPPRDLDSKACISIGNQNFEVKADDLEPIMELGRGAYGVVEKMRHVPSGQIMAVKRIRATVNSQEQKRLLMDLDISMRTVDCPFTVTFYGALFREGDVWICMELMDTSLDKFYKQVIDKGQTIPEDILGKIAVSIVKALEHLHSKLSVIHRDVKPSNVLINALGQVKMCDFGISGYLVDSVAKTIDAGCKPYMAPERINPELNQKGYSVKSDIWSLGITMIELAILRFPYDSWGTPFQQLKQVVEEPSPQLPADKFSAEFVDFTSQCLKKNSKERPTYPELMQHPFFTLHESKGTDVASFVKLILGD

[4] = target: Receptor-interacting serine/threonine-protein kinase 3 (Homo sapiens) (UniProt Q9Y572); experiment: Selectivity interaction (Kinase panel (KiNativ target engagement assay in Jurkat cells)) EUB0001635a RIPK3; format: cell-based; details: Selectivity number of off-targets 0.0, Selectivity number of targets 233.0, Source Knowledge https://www.sciencedirect.com/science/article/pii/S2451945619300674?via%3Dihub, at 1 µM
[5] = target: T3, Serine/threonine-protein kinase haspin (Homo sapiens) (UniProt Q8TF76); experiment: Selectivity interaction (Kinase panel (DSF assay)) EUB0001559a GSG2
T3 sequence (whole entry): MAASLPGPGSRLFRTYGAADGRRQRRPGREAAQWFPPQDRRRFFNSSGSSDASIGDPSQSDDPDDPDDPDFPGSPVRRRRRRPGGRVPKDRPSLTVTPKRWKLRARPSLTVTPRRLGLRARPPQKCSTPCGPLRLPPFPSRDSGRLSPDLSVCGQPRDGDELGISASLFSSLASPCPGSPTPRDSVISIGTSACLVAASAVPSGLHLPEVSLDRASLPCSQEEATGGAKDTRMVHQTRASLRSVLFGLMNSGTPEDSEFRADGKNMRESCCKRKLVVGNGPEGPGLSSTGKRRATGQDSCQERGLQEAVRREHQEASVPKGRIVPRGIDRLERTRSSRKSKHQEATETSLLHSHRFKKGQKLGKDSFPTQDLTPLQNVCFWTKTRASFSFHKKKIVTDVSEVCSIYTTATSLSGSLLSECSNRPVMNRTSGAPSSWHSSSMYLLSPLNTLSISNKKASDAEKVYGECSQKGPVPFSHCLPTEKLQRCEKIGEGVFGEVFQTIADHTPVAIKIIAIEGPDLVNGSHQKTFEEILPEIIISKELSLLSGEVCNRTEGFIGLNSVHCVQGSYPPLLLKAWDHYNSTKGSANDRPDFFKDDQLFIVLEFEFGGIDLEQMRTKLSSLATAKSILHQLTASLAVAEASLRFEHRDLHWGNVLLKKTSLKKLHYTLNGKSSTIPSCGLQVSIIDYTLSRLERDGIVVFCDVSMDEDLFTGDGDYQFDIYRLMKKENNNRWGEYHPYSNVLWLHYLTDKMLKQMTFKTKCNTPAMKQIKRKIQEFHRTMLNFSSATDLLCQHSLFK

[6] = target: Histone-lysine N-methyltransferase KMT5C (Homo sapiens) (UniProt Q86Y97); experiment: Selectivity interaction (Transferase panel (protein, RNA, and DNA methyltransferases. and EP300 (acetyltransferase))) EUB0000270b SUV420H2
[7] = target: Lethal(3)malignant brain tumor-like protein 1 (Homo sapiens) (UniProt Q9Y468); experiment: Selectivity interaction (PWWP, WD40, and Tudor domain panel (DSLS measurements, literature)) EUB0000270b L3MBTL
[8] = target: Fibroblast growth factor receptor 3 (Homo sapiens, UniProt P22607); experiment: (§1) Selectivity interaction (Ambit KINOMEscan and KiNATiv profiling in Jurkat cells) EUB0000090b FGFR3; format: cell-based; details: at 1 µM
[9] = test system: Fibroblast growth factor receptor 3 (Homo sapiens), P22607 [G697C]; experiment: as §1; format: cell-based; details: at 1 µM
[10] = target: Non-receptor tyrosine-protein kinase TYK2 (Homo sapiens, UniProt P29597); experiment: Selectivity interaction (KinomeScan (DiscoverX)) EUB0000045b TYK2; details: at 10 µM
[11] = target: Calcium/calmodulin-dependent protein kinase type II subunit beta (Homo sapiens) (UniProt Q13554); experiment: Selectivity interaction (KinomeScan (DiscoverX)) EUB0000655a CAMK2B; details: at 10 µM
[12] = target: MAP/microtubule affinity-regulating kinase 3 (Homo sapiens) (UniProt P27448); experiment: Selectivity interaction (KinomeScan (DiscoverX)) EUB0000655a MARK3; details: at 10 µM
Chain of MAP/microtubule affinity-regulating kinase 3 (Homo sapiens) (P27448 whole entry, looked up): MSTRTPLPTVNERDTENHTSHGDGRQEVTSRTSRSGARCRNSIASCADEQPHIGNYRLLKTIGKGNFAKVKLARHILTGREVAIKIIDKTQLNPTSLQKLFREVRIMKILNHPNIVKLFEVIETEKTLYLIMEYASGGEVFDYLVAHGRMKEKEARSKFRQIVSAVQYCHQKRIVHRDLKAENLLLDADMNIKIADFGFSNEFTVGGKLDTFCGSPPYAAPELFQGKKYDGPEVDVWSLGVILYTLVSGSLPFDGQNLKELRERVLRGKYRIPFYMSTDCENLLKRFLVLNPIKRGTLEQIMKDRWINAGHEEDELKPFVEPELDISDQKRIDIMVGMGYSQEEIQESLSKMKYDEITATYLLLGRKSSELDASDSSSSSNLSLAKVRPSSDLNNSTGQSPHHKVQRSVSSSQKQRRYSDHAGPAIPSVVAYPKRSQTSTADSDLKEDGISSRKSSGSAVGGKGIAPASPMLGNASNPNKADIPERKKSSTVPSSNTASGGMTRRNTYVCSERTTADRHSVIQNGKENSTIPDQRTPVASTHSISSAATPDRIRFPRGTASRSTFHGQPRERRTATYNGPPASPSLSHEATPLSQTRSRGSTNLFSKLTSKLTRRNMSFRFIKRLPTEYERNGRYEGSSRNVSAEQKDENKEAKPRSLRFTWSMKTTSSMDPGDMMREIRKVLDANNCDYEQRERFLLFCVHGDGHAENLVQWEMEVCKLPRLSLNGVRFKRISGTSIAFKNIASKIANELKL

Chain of Histone-lysine N-methyltransferase KMT5C (Homo sapiens) (Q86Y97 whole entry, looked up, the tested form may be a part): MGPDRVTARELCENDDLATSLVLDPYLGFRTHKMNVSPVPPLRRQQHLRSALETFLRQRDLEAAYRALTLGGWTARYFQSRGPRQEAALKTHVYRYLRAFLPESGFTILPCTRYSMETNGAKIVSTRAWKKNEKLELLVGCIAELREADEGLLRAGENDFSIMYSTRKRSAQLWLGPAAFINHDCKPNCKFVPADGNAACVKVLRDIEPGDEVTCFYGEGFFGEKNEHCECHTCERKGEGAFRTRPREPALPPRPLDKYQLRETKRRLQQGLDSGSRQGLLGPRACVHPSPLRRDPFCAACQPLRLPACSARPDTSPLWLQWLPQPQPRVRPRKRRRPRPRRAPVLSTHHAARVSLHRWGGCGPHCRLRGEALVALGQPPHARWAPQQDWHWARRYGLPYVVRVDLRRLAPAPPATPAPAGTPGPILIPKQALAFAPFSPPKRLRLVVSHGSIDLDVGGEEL
Chain of Calcium/calmodulin-dependent protein kinase type II subunit beta (Homo sapiens) (Q13554 whole entry): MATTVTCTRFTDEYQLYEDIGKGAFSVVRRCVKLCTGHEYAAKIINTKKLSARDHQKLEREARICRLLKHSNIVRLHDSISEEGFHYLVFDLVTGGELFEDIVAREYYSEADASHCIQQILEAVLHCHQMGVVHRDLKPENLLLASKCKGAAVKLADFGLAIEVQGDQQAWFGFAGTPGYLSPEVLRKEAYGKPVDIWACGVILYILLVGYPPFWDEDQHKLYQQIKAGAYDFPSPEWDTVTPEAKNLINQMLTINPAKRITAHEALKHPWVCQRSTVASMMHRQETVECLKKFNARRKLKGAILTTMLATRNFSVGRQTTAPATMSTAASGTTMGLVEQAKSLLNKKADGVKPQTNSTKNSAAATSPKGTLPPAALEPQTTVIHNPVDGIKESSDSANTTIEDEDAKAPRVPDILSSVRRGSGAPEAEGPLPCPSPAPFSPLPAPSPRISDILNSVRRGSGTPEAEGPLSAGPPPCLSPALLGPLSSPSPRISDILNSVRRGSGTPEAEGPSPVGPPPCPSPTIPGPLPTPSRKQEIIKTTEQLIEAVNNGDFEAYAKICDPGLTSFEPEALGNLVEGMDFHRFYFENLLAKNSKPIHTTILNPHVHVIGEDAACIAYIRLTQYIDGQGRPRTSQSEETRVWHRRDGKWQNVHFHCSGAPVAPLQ
Chain of Non-receptor tyrosine-protein kinase TYK2 (P29597 whole entry): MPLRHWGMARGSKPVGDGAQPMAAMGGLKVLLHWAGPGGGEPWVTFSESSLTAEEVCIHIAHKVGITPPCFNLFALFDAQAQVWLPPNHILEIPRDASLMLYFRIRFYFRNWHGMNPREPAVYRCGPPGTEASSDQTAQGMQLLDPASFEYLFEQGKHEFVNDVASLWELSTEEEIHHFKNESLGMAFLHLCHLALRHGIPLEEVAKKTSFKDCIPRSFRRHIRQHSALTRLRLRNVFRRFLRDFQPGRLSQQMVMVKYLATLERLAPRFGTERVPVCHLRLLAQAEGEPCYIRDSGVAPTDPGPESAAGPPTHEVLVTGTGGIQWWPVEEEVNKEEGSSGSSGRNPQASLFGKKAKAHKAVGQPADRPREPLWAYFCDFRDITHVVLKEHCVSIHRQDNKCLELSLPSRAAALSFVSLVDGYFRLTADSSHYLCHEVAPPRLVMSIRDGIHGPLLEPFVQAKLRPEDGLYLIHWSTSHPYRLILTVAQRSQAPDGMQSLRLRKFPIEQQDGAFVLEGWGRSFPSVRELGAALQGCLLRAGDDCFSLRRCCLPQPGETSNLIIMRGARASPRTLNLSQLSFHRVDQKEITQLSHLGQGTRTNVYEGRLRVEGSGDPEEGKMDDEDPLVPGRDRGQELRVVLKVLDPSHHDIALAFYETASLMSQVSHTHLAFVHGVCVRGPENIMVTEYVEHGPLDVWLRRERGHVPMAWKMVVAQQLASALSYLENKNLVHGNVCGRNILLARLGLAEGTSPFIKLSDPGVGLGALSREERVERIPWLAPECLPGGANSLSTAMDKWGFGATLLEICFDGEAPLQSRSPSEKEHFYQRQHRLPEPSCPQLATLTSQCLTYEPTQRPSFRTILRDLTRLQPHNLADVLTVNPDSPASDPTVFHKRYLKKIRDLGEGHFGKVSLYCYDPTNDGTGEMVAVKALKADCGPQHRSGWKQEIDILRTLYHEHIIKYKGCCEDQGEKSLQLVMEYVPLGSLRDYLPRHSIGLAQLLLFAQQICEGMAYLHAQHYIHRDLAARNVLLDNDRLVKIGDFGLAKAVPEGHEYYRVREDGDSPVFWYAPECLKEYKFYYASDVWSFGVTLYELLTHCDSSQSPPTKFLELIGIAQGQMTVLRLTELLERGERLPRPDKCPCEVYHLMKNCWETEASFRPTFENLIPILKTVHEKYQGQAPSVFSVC
Chain of Lethal(3)malignant brain tumor-like protein 1 (Homo sapiens) (Q9Y468 whole entry, the tested form may be a part): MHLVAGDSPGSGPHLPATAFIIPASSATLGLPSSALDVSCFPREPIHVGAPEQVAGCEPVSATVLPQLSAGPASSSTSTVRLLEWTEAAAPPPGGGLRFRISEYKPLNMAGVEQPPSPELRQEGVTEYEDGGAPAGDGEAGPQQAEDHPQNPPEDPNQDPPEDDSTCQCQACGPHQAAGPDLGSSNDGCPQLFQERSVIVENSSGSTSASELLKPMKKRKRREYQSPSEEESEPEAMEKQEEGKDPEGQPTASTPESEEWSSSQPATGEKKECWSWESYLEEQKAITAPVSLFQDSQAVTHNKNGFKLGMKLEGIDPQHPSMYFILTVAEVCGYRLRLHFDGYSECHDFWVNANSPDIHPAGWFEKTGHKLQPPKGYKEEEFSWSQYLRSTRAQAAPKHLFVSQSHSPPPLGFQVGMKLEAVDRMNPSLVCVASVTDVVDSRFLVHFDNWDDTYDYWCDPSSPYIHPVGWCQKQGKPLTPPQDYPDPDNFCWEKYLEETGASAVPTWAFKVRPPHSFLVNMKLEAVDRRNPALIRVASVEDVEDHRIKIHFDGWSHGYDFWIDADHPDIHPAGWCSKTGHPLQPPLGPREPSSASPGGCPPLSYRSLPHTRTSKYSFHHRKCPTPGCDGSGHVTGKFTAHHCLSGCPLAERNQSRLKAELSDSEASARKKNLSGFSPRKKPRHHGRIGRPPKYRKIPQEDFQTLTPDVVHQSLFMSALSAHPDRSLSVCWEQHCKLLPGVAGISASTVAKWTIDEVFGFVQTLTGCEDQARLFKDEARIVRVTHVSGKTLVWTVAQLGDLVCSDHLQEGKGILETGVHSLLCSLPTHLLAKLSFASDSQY
Chain of Fibroblast growth factor receptor 3 (P22607 23-806 limits assumed): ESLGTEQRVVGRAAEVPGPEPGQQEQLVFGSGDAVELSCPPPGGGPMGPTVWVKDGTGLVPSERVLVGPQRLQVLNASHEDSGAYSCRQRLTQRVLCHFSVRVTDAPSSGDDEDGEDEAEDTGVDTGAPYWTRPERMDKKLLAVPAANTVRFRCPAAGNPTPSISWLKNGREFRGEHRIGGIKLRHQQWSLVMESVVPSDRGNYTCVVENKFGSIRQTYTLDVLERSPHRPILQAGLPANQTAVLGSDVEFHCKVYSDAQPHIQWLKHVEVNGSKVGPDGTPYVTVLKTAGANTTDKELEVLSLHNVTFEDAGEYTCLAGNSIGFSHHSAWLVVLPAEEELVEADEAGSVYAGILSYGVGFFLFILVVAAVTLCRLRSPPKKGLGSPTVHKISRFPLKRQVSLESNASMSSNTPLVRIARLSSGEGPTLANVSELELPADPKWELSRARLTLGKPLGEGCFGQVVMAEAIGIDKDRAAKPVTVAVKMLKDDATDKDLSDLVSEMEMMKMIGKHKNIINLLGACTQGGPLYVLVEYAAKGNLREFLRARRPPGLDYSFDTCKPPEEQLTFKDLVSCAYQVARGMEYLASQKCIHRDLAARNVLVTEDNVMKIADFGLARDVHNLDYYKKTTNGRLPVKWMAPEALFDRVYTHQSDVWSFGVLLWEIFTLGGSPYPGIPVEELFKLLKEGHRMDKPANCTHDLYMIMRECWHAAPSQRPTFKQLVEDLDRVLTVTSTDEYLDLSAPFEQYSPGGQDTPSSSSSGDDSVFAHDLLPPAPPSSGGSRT

COc1cc(N(C)c2ccnc3ccc(C(F)(F)F)cc23)cc(OC)c1OC
% binding [1]: 82% | % binding [2]: 86%

Nc1cnc(N2CCc3cc(S(=O)(=O)Nc4c(F)cc(Cl)cc4F)cc(N4CCCC4=O)c32)nc1 [TP-020n]
% of control [3]: 71%

C=CC(=O)Nc1ccc(C(=O)Nc2[nH]nc3c2CN(C(=O)N[C@H](CN(C)C)c2ccccc2)C3(C)C)cc1
% of engagement [4]: -0.8%

CN(C(=O)c1cnn2cccnc12)c1cc2c(cc1N1CCOCC1)C(=O)N(C[C@@H](F)C(C)(C)O)C2
dTM [5]: 1.8 K

Cc1cc(CN)cc(C)c1-c1ncn(C)c1-c1cncn1C
% activity ([6]; at 1 µM): > 90% | % activity ([6]; at 10 µM): > 80% | dTagg [7]: 0.2 K

CN(C)C/C=C/C(=O)Nc1ccc(C(=O)N2CCCC(Nc3ncc(Cl)c(-c4c[nH]c5ccccc45)n3)C2)cc1 (stereo not drawn)
% of control [8]: 92% | % of control [9]: 72%

C=CC(=O)Nc1cc(-n2c(=O)ccc3cnc4ccc(-c5ccc(NS(C)(=O)=O)cc5)cc4c32)ccc1C
% of control [10]: 100%

CN(C)CCOc1ccc(-c2nc(-c3ccncc3)c(-c3ccc4c(c3)CC/C4=N\O)[nH]2)cc1
% of control [11]: 98% | % of control [12]: 95%
